Non-standard residues stand in square brackets, D forms with d. Residues, ends and D or L forms follow the SMILES beside them. No end group written: not given here. *: point of attachment. X1 = NCCCCCCCCCCCCCCCCCC(=O)*; 12Ado = NCCCCCCCCCCCC(=O)O
Target: T1, IL-6 (Homo sapiens, UniProt P05231)
T1 construct: purchased Genzyme Corp
Assay: Activity for inhibition of binding of IL-6 to receptor by peptide (IL-6 receptor expression cells, FITC labeled anti-IL-6 antibody)
Conditions: 5 μg of the peptide, 50 ng of IL-6, 10^5 IL-6 receptor expression cells, 4° C for one hour
Method: A human lymphocyte fraction was obtained from human peripheral blood with Ficoll-Paque (manufactured by Pharmacia-LKB). The fraction was reacted with a cultured supernatant of Epstein-Barr Virus producing cell strain B958 to transform the human lymphocytes to obtain IL-6 receptor expression cells.
1 mg of anti-human IL-6 antibody [Rabbit Anti-human Interleukin-6, manufactured by Genzyme Corp.] was dissolved in a 0.05M carbonate buffer solution (pH: 9.5) and to the resulting solution was added 10 μg of FITC [Fluorescein isothiocyanate, manufactured by Sigma Corp.]. The mixture was stirred at 4° C. overnight. The resulting solution was passed through PD-10 column (manufactured by Pharmacia-LKB) to obtain FITC labeled anti-IL-6 antibody as a firstly eluted fraction.
10^5 IL-6 receptor expression cells were suspended in 0.5 % BSA (bovine serum albumin, manufactured by Sigma Corp.)-PBS (a phosphate buffer solution containing 0.15 M sodium chloride, pH 7.4) and to the resulting suspension were added 50 ng of IL-6 (Human recombinant interleukin-6, manufactured by Genzyme Corp.) and 5 μg of the peptide obtained in any one of Examples 1 to 96. The suspension was allowed to stand at 4° C for one hour. Then, after washing the cells centrifugally with 0.5% BSA-PBS three times (1200 rpm, 5 min.), 1 μg of FITC labeled anti-IL-6 antibody was added and the mixture was allowed to stand at 4° C. for 30 minutes. After washing with 0.5% BSA-PBS three times, the intensity of fluorescence of the cells was determined. The binding inhibition activity of the peptide of each Example was evaluated, by taking the value obtained without addition of the peptide as a control and taking the value- obtained without addition of IL-6 as a blank, according to the following formula: [formula]

T1 sequence (P05231 30-212): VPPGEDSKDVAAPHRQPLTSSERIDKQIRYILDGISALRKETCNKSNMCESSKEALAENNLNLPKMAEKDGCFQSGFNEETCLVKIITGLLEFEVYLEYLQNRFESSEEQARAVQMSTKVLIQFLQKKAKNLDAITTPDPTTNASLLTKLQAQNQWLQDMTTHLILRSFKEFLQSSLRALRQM

Compound | Binding inhibition activity (%)
KKRKFQNSPAEDFQEPCQYSQES [Example 18] | 55%
NPRWLSVTWQDPHS [Example 53] | 22%
EEERKFQNSPAEDFQEPCQYSQESKG-NH2 [Example 23] | 58%
DDDDDWQDPHSWNSSFYRLRFELRYRAERSKAAG-NH2 [Example 96] | 52%
HSWNSSFYRLRFELRYRAERSKK [Example 57] | 63%
KKWQDPHSWNSSFYRLRFELRYRAERSK [Example 90] | 71%
QALTTNKDDDNILFRDSAK [Example 25] | 45%
CC(C)C[C@H](NC(=O)[C@H](CCC(=O)O)NC(=O)[C@H](Cc1ccccc1)NC(=O)[C@H](CCCNC(=N)N)NC(=O)[C@H](CC(C)C)NC(=O)[C@H](CCCNC(=N)N)NC(=O)[C@H](Cc1ccc(O)cc1)NC(=O)[C@H](Cc1ccccc1)NC(=O)[C@H](CO)NC(=O)[C@H](CO)NC(=O)[C@H](CC(N)=O)NC(=O)[C@H](Cc1c[nH]c2ccccc12)NC(=O)CCCCCCCCCCCN)C(=O)N[C@@H](CCCNC(=N)N)C(=O)N[C@@H](Cc1ccc(O)cc1)C(=O)N[C@@H](CCCNC(=N)N)C(=O)N[C@@H](C)C(=O)N[C@@H](CCC(=O)O)C(=O)N[C@@H](CCCNC(=N)N)C(=O)N[C@@H](CO)C(=O)N[C@@H](CCCCN)C(=O)N[C@@H](CCC(=O)O)C(=O)N[C@@H](CCC(=O)O)C(=O)N[C@@H](CCC(=O)O)C(=O)N[C@@H](CCC(=O)O)C(=O)N[C@@H](CCC(=O)O)C(=O)O [Example 35] (H-[12Ado]WNSSFYRLRFELRYRAERSKEEEEE-OH) | 60%
KKWNSSFYRLRFELRYRAERSK [Example 34] | 55%
KQDPHSWNSSFYRLRFELRYRAERSKD-NH2 [Example 86] | 58%
QALTTNKDDDNILFRDSA [Example 29] | 41%
CC[C@H](C)[C@H](NC(=O)[C@H](CC(N)=O)NC(=O)[C@H](CC(=O)O)NC(=O)[C@H](CC(=O)O)NC(=O)[C@H](CC(=O)O)NC(=O)[C@H](CCCCN)NC(=O)[C@H](CC(N)=O)NC(=O)[C@@H](NC(=O)[C@@H](NC(=O)[C@H](CC(C)C)NC(=O)[C@H](C)NC(=O)[C@H](CCC(N)=O)NC(=O)CCCCCCCCCCCN)[C@@H](C)O)[C@@H](C)O)C(=O)N[C@@H](CC(C)C)C(=O)N[C@@H](Cc1ccccc1)C(=O)N[C@@H](CCCNC(=N)N)C(=O)N[C@@H](CC(=O)O)C(=O)N[C@@H](CO)C(=O)N[C@@H](C)C(=O)N[C@@H](CCC(=O)O)C(=O)N[C@@H](CCC(=O)O)C(=O)N[C@@H](CCC(=O)O)C(=O)N[C@@H](CCC(=O)O)C(=O)N[C@@H](CCC(=O)O)C(=O)O [Example 27] (H-[12Ado]QALTTNKDDDNILFRDSAEEEEE-OH) | 48%
EEEDPHSWNSSFYRLRFELRYRAERSKKG-NH2 [Example 79] | 62%
GTVHLLVDVPPEEPQLSCFRKK [Example 9] | 30%
KKNPRWLSVTWQDPHS [Example 50] | 25%
KDPHSWNSSFYRLRFELRYRAERSKD-NH2 [Example 78] | 60%
CC(C)C[C@H](NC(=O)[C@H](Cc1c[nH]cn1)NC(=O)[C@@H](NC(=O)[C@@H](NC(=O)CNC(=O)CCCCCCCCCCCCCCCCCN)[C@@H](C)O)C(C)C)C(=O)N[C@@H](CC(C)C)C(=O)N[C@H](C(=O)N[C@@H](CC(=O)O)C(=O)N[C@H](C(=O)N1CCC[C@H]1C(=O)N1CCC[C@H]1C(=O)N[C@@H](CCC(=O)O)C(=O)N[C@@H](CCC(=O)O)C(=O)N1CCC[C@H]1C(=O)N[C@@H](CCC(N)=O)C(=O)N[C@@H](CC(C)C)C(=O)N[C@@H](CO)C(=O)N[C@@H](CS)C(=O)N[C@@H](Cc1ccccc1)C(=O)N[C@@H](CCCNC(=N)N)C(=O)N[C@@H](CCCCN)C(=O)NCC(=O)O)C(C)C)C(C)C [Example 12] (X1-GTVHLLVDVPPEEPQLSCFRKG-OH) | 35%
DDDDDHSWNSSFYRLRFELRYRAERSKAAG-NH2 [Example 64] | 55%

Compound | Binding inhibition activity (%)
KKHSWNSSFYRLRFELRYRAERSK [Example 58] | 60%
WNSSFYRLRFELRYRAERSK [Example 37] | 48%
QDPHSWNSSFYRLRFELRYRAERSK [Example 85] | 60%
CC(C)C[C@H](NC(=O)[C@H](Cc1c[nH]cn1)NC(=O)[C@@H](NC(=O)[C@@H](NC(=O)CNC(=O)CCCCCCCCCCCN)[C@@H](C)O)C(C)C)C(=O)N[C@@H](CC(C)C)C(=O)N[C@H](C(=O)N[C@@H](CC(=O)O)C(=O)N[C@H](C(=O)N1CCC[C@H]1C(=O)N1CCC[C@H]1C(=O)N[C@@H](CCC(=O)O)C(=O)N[C@@H](CCC(=O)O)C(=O)N1CCC[C@H]1C(=O)N[C@@H](CCC(N)=O)C(=O)N[C@@H](CC(C)C)C(=O)N[C@@H](CO)C(=O)N[C@@H](CS)C(=O)N[C@@H](Cc1ccccc1)C(=O)N[C@@H](CCCNC(=N)N)C(=O)N[C@@H](CCCCN)C(=O)N[C@@H](CCC(=O)O)C(=O)N[C@@H](CCC(=O)O)C(=O)N[C@@H](CCC(=O)O)C(=O)N[C@@H](CCC(=O)O)C(=O)N[C@@H](CCC(=O)O)C(=O)O)C(C)C)C(C)C [Example 11] (H-[12Ado]GTVHLLVDVPPEEPQLSCFRKEEEEE-OH) | 34%
HSWNSSFYRLRFELRYRAERSK [Example 61] | 45%
KKTSLPGDSVTLTCPGVEPED [Example 2] | 35%
DDDDDQDPHSWNSSFYRLRFELRYRAERSKAAG-NH2 [Example 88] | 66%
DDDDDNPRWLSVTWQDPHSAAG-NH2 [Example 56] | 25%
EEEHSWNSSFYRLRFELRYRAERSKKG-NH2 [Example 63] | 51%
EEENPRWLSVTWQDPHSKG-NH2 [Example 55] | 28%
CC(C)C[C@H](NC(=O)[C@H](Cc1c[nH]c2ccccc12)NC(=O)[C@H](CCCNC(=N)N)NC(=O)[C@@H]1CCCN1C(=O)[C@H](CC(N)=O)NC(=O)CCCCCCCCCCCN)C(=O)N[C@@H](CO)C(=O)N[C@H](C(=O)N[C@H](C(=O)N[C@@H](Cc1c[nH]c2ccccc12)C(=O)N[C@@H](CCC(N)=O)C(=O)N[C@@H](CC(=O)O)C(=O)N1CCC[C@H]1C(=O)N[C@@H](Cc1c[nH]cn1)C(=O)N[C@@H](CO)C(=O)N[C@@H](CCC(=O)O)C(=O)N[C@@H](CCC(=O)O)C(=O)N[C@@H](CCC(=O)O)C(=O)N[C@@H](CCC(=O)O)C(=O)N[C@@H](CCC(=O)O)C(=O)O)[C@@H](C)O)C(C)C [Example 51] (H-[12Ado]NPRWLSVTWQDPHSEEEEE-OH) | 32%
CC(C)C[C@H](NC(=O)[C@@H](NC(=O)[C@@H](NC(=O)[C@H](CO)NC(=O)[C@H](CC(=O)O)NC(=O)CNC(=O)[C@@H]1CCCN1C(=O)[C@H](CC(C)C)NC(=O)[C@H](CO)NC(=O)[C@@H](NC(=O)CCCCCCCCCCCCCCCCCN)[C@@H](C)O)C(C)C)[C@@H](C)O)C(=O)N[C@H](C(=O)N[C@@H](CS)C(=O)N1CCC[C@H]1C(=O)NCC(=O)N[C@H](C(=O)N[C@@H](CCC(=O)O)C(=O)N1CCC[C@H]1C(=O)N[C@@H](CCC(=O)O)C(=O)N[C@@H](CC(=O)O)C(=O)NCC(=O)O)C(C)C)[C@@H](C)O [Example 4] (X1-TSLPGDSVTLTCPGVEPEDG-OH) | 42%
NPRWLSVTWQDPHSK [Example 49] | 30%
EEETSLPGDSVTLTCPGVEPEDKG-NH2 [Example 7] | 38%
KQALTTNKDDDNILFRDSAD-NH2 [Example 30] | 46%
KKQDPHSWNSSFYRLRFELRYRAERSK [Example 82] | 70%
CC(C)C[C@H](NC(=O)[C@@H](NC(=O)[C@@H](NC(=O)[C@H](CO)NC(=O)[C@H](CC(=O)O)NC(=O)CNC(=O)[C@@H]1CCCN1C(=O)[C@H](CC(C)C)NC(=O)[C@H](CO)NC(=O)[C@@H](NC(=O)CCCCCCCCCCCN)[C@@H](C)O)C(C)C)[C@@H](C)O)C(=O)N[C@H](C(=O)N[C@@H](CS)C(=O)N1CCC[C@H]1C(=O)NCC(=O)N[C@H](C(=O)N[C@@H](CCC(=O)O)C(=O)N1CCC[C@H]1C(=O)N[C@@H](CCC(=O)O)C(=O)N[C@@H](CC(=O)O)C(=O)N[C@@H](CCC(=O)O)C(=O)N[C@@H](CCC(=O)O)C(=O)N[C@@H](CCC(=O)O)C(=O)N[C@@H](CCC(=O)O)C(=O)N[C@@H](CCC(=O)O)C(=O)O)C(C)C)[C@@H](C)O [Example 3] (H-[12Ado]TSLPGDSVTLTCPGVEPEDEEEEE-OH) | 40%
DDDDDTSLPGDSVTLTCPGVEPEDAAG-NH2 [Example 8] | 37%

From patent US5171837A, “Peptide capable of binding interleukin 6 and an adsorbent comprising the peptide immobilized on a carrier” (Kuraray Co., Ltd., priority 1989, dated 1992)
